Assay results as given in patent US11793790B2, “Compositions against Candida infections” (Katholieke Universiteit Leuven, priority 2017, dated 2023).

Legend:
[1] = cited from earlier work
C. albicans biofilms = experiment: Biofilm checkerboard assay (CTB metabolic activity, BEC-2, FICI); conditions: for BEC-2 MCZ: 24 h
[2] = test system: C. albicans biofilm cells; experiment: Kinetic PI (propidium iodide) fluorescence assay on biofilms; format: cell-based, Candida albicans
[3] = test system: C. glabrata biofilms (strain BG2); experiment: Biofilm checkerboard assay with CFU determination (Example 9); format: cell-based, Candida glabrata; conditions: on its own or in combination with DB
Method: After 1 h of adhesion at 37° C., the medium was aspirated and biofilms were washed with 100 μL PBS to remove non-adherent cells, followed by the addition of 100 μL RPMI 1640 medium. Biofilms were allowed to grow for 24 h at 37° C. To determine possible potentiation of MCZ by DB, a checkerboard assay was used. […] After 38 h of incubation at 37° C., CFU determination was performed on treated biofilms. […] Serial dilutions (10^−2, 10^−3 and 10^−4) were plated on YPD agar plates, followed by an incubation period of 24 h at 37° C. and subsequent colony counting.

[4] = test system: planktonic C. glabrata cultures (strain BG2); experiment: Checkerboard assay with determination of the MIC; format: cell-based, Candida glabrata
Method: A C. glabrata BG2 overnight culture, grown in YPD, was diluted to an optical density of 0.1 (approximately 10^6 cells/mL) in RPMI medium, preheated at 37° C. 90 μL of the cell suspension was added to the wells of a 96 well plate, containing 10 μL of a combination of MCZ and DB, two fold diluted across rows and columns respectively (DMSO background 2%). After both 24 h and 48 h of incubation at 37° C., absorbance was measured at 490 nm by a multimode reader (Synergy Mx multi-mode microplate reader, BioTek, USA).
Domiphen bromide (DB) is a potentiator of miconazole against C. glabrata biofilms. […] MIC values were determined using Graphpad Prism 6 (table 8).

[5] = single treatment at 50 μM, 5-10 h after treatment

## Clc1ccc(COC(Cn2ccnc2)c2ccc(Cl)cc2Cl)c(Cl)c1 (racemic) [Miconazole, (RS)-1-[2-(2,4-dichlorofenyl)-2-[(2,4-dichlorofenyl)methoxy]ethyl] imidazole]
[1]
  solubility in water: insoluble in water
C. albicans biofilms; 0 μM DB (MCZ alone)
  BEC-2 MCZ: 230 µM
C. albicans biofilms; in combination with 1.56 μM DB
  BEC-2 MCZ: 150 µM
C. albicans biofilms; in combination with 3.125 μM DB
  BEC-2 MCZ: 100 µM
C. albicans biofilms; in combination with 6.25 μM DB
  BEC-2 MCZ: 55 µM
C. albicans biofilms; in combination with 12.5 μM DB
  BEC-2 MCZ: 30 µM
C. albicans biofilms; in combination with 25 μM DB
  BEC-2 MCZ: 1 µM
[2]; single treatment 150 μM, after 16 h of treatment
  PI fluorescence: slight increase

## CC[C@@H]([C@H](C)O)n1ncn(-c2ccc(N3CCN(c4ccc(OC[C@@H]5CO[C@@](Cn6cncn6)(c6ccc(F)cc6F)C5)cc4)CC3)cc2)c1=O [Posaconazole]
[3]
  antibiofilm activity against C. glabrata biofilms: no significant antibiofilm activity

## CCCCCCCCCCCC[N+](C)(C)CCOc1ccccc1 [domiphen bromide, N,N-dimetyl-N-(2-phenoxyetyl)-, bromide]
[1]
  solubility in water: highly soluble in water
[2]; [5]
  PI fluorescence: slight increase

## Clc1ccc(COC(Cn2ccnc2)c2ccc(Cl)cc2Cl)c(Cl)c1 (stereo not drawn) [miconazole nitrate]
[1]
  solubility in water: insoluble in water

## CC[N+](CC)(CC)CC.[Br-] [tetraethylammonium bromide]
C. albicans biofilms; quaternary ammonium compound combined with Miconazole
  FICI with Miconazole: > 0.5

## benzalkonium chloride
[4]
  potentiation of MCZ against planktonic C. glabrata cultures: could not potentiate MCZ
[2]; [5]
  PI fluorescence: slight increase
